Assay results reported in the pKa sets of Baltruschat and Czodrowski (2020).

Conditions: acidic group

| Structure (SMILES) | pKa |
| --- | --- |
| CC[C@H](C)[C@H]([NH3+])C(=O)O | 2.31 |
| COC(=O)c1cc(O)c(O)c(O)c1C[NH+](C)C | 6.8 |
| Cc1cc(C(O)=C(C#N)C#N)cc(C)c1O | 2.55 |
| NC(=O)[C@H](N)[C@H](O)C(=O)O | 2.31 |
| CC(=O)N1C[C@@]2(C(C)C)OC(=O)C[C@H]2[C@@H]1C(=O)O | 3.2 |
| Fc1ccc(NC(=S)c2ccc(Cl)cc2)cc1 | 10.4 |
| CC1C(=O)CC(C)(C)CC1=O | 5.6 |
| C=C(C)[C@H]1C[NH2+][C@H](C(=O)O)[C@H]1CC(=O)O | 2.1 |
| Cc1cc(C)c(O)c(C(C)C)c1 | 11.2 |
| C=C(SC1CCCCC1)C(=O)O | 3.4 |
| CC[N+](O)(CC)CC | 5.13 |
| Nc1ccc(S(=O)(=O)Nc2nccs2)cc1 | 7.25 |
| CC(C)CS(=O)O | 2.75 |
| C[NH+](C)CCCCNC(=O)/C=N/O | 8.81 |
| O=C(O)C1=C(CO)CCC1 | 4.54 |
| COc1ccc(-c2nc3ncncc3[nH]2)c(OC)c1 | 9.92 |
| Cn1c[nH+]cc1C[C@H](NC(=O)CC[NH3+])C(=O)O | 2.64 |
| Cc1ccccc1C(O)C(C(=O)O)c1ccc(-c2ccccc2)cc1 (centres undefined) | 4.19 |
| C/C(=N\O)C(=O)NO | 7.74 |
| Nc1ccc(S(=O)(=O)Nc2ccn(-c3ccc([N+](=O)[O-])cc3)n2)cc1 | 6.94 |
| S=C(Nc1ccc(Br)cc1)c1ccc(Cl)cc1 | 10.2 |

| Structure (SMILES) | pKa |
| --- | --- |
| CC(C)(C)OC(=O)NC(CCC(N)=O)C(=O)O (centres undefined) | 3.66 |
| O=C(O)CC(c1[nH]cc[nH+]1)c1[nH]cc[nH+]1 | 2.79 |
| COc1cnccc1C(O)O | 11.7 |
| NS(=O)(=O)c1cc2c(cc1Cl)N=CNS2(=O)=O | 6.7 |
| NC(=O)C1CC2CCN1CC2 (centres undefined) | 9.04 |
| Nc1nc[nH+]c(O)c1N | 3.57 |
| Cn1cnc2nc(N)[nH+]c(O)c21 | 3.57 |
| NS(=O)(=O)c1ccsc1C(=O)O | 3.3 |
| Cc1cc(/N=N/c2ccc(S(N)(=O)=O)cc2)cc(C(=O)O)c1O | 2.25 |
| CC1(C)O[C@@H]2CC(=O)OC[C@]23[C@@H]1CC(=O)[C@@]1(C)[C@H]3C[C@](C)(CC2CCOC2)C[C@]12O[C@H]2C(=O)O (some centres undefined) | 2.7 |
| [NH3+]CC(=O)O | 2.36 |
| O=Cc1cc(Cl)cc([N+](=O)[O-])c1O | 4.46 |
| C[NH+](C)CC(P(=O)([O-])O)P(=O)([O-])O | 5.75 |
| O=C1CCC(C(=O)O)N1 (centres undefined) | 3.25 |
| COP(=O)(O)NS(C)(=O)=O | 1.16 |
| S=CNc1ccc(Cl)cc1 | 10.8 |
| Nc1ccc(-c2ccc(/N=C/c3ccc(O)cc3)cc2)cc1 | 9.5 |
| O=P1(O)CCC1 | 3.07 |
| O=S1(=O)N=CNc2nc[nH]c21 | 5.59 |
| CC(C)(C)C(=O)CC(=O)C(C)(C)C | 11.8 |

Results, then the compound that gave them:

| pKa | Structure (SMILES) |
| --- | --- |
| 6.47 | Cc1ccc(S)cc1 |
| 4.45 | C=CCOc1ccc(C(=O)O)cc1 |
| 3.71 | O=C(O)/C=C\c1cccc(Cl)c1 |
| 7.7 | CC[NH+](CC)Cc1cc(Br)ccc1O |
| 4.15 | On1nnc2ccc(Cl)cc21 |
| 10.8 | Cc1cccc(C(C)C)c1O |
| 4.85 | O=S(=O)(Nc1ccccc1)C(F)(F)F |
| 9.54 | O=C(CC(=O)c1ccccc1)Nc1ccccc1 |
| 3.84 | O=C(O)c1ccccc1CO |
| 4.87 | O=C(O)CCc1c[nH]c2ccccc12 |
| 10.9 | O=C(C[n+]1ccccc1)c1ccccc1 |
| 8.85 | O=S(=O)([O-])c1cc(O)cc2[nH]ncc12 |
| 12.2 | C[n+]1ccc(C(=O)c2ccccc2)cc1 |
| 4.03 | c1ccc(-c2nnn[nH]2)cc1 |
| 10.1 | O=[N+]([O-])c1ccccc1/C=N/O |
| 14 | NC(=O)Nc1ccc([N+](=O)[O-])cc1 |
| 12.5 | c1ccc2c(c1)ccc1nc[nH]c12 |
| 5.4 | O=c1ccccc(O)c1 |
| 10.7 | CC(C)(/C=C/C(=O)[O-])c1ccccc1O |

| pKa | Structure (SMILES) |
| --- | --- |
| 2.33 | COc1ccc(-c2c(O)c2=O)cc1 |
| 4.96 | C[n+]1cccc(O)c1 |
| 9.83 | OCc1cccc(O)c1 |
| 2.25 | O=P(O)(O)C([NH2+]Cc1cccc[nH+]1)c1ccccc1O (centres undefined) |
| 2.91 | Cc1cccc(C(=O)O)c1[N+](=O)[O-] |
| 10.2 | Cc1ccccc1NC(=S)c1ccccc1 |
| 4.8 | O/C(=C/[n+]1ccccc1)c1ccccc1 |
| 9.51 | Cc1cccc(S(N)(=O)=O)c1 |
| 7.82 | O=C(NO)c1ccncc1 |
| 3.83 | O=C(O)c1cccc(I)c1 |
| 3.83 | Brc1ccccc1-c1nnn[nH]1 |
| 3.53 | NS(=O)(=O)c1ccc(C(=O)O)cc1 |
| 10.1 | NC(=O)/C(=N\O)c1ccccc1 |
| 8.55 | OB(O)c1cccc(O)c1 |
| 4.78 | C/C=C/C1=C(O)C(=O)c2ccccc2C1=O |
| 10.1 | O=C1CCc2cc([N+](=O)[O-])ccc2C1 |
| 3.17 | Cc1ccc([N+](=O)[O-])cc1C(=O)O |
| 10.8 | S=C(Nc1ccc(Cl)cc1)c1ccccc1 |
| 4.6 | Cc1ccc([C@H]2C[C@@H]2C(=O)O)cc1 |

Same assay, conditions: basic group

| pKa | Structure (SMILES) |
| --- | --- |
| 6.16 | COc1ccc(-c2nc3cnccc3n2C)c(OC)c1 |
| 6.67 | CN(C)c1cccnc1 |
| 11 | NCCCCCCCC(=O)[O-] |
| 9.05 | CN[C@H]1C[C@]1(C)NC |

| Structure (SMILES) | pKa |
| --- | --- |
| c1cnc2c(c1)ccc1[nH+]cccc12 | 1 |
